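Test compounds were applied to cells in 96-well plates for 48 hours at 5 doses. GI50 is the concentration that inhibits growth by half.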 Active and inactive are the calls of the source. No stated cut-off is given here; in the data, active = GI50 up to about 1.1 µM and inactive = higher.
Columns and labels:
Test in all cases: NCI tumour cell line growth inhibition, 48 h
OVCAR-3 = tested on: OVCAR-3
ACHN = tested on: ACHN
NCI-H522 = tested on: NCI-H522
Hs-578T = tested on: Hs-578T
NCI-H226 = tested on: NCI-H226
PC-3 = tested on: PC-3
HCT-116 = tested on: HCT-116
CCRF-CEM = tested on: CCRF-CEM
HT-29 = tested on: HT-29
786-0 = tested on: 786-0
LOX IMVI = tested on: LOX IMVI
T47D = tested on: T47D
IGROV-1 = tested on: IGROV-1
SK-OV-3 = tested on: SK-OV-3
U-251 = tested on: U-251
COLO 205 = tested on: COLO 205
SF-539 = tested on: SF-539
UACC-62 = tested on: UACC-62
MDA-MB-231 = tested on: MDA-MB-231
RXF 393 = tested on: RXF 393
HOP-62 = tested on: HOP-62
HCC 2998 = tested on: HCC 2998
NCI-H460 = tested on: NCI-H460
MOLT-4 = tested on: MOLT-4
Malme-3M = tested on: Malme-3M
TK-10 = tested on: TK-10
UO-31 = tested on: UO-31
MCF7 = tested on: MCF7
SK-MEL-2 = tested on: SK-MEL-2
A549 = tested on: A549
KM12 = tested on: KM12
DU-145 = tested on: DU-145
MDA-MB-435 = tested on: MDA-MB-435
A498 = tested on: A498
OVCAR-8 = tested on: OVCAR-8
CAKI-1 = tested on: CAKI-1
SNB-19 = tested on: SNB-19
K562 = tested on: K562
SNB-75 = tested on: SNB-75
EKVX = tested on: EKVX
UACC-257 = tested on: UACC-257
SK-MEL-5 = tested on: SK-MEL-5
SN12C = tested on: SN12C
SK-MEL-28 = tested on: SK-MEL-28
RPMI-8226 = tested on: RPMI-8226
HCT-15 = tested on: HCT-15
OVCAR-4 = tested on: OVCAR-4
OVCAR-5 = tested on: OVCAR-5
SF-268 = tested on: SF-268
NCI/ADR-RES = tested on: NCI/ADR-RES
NCI-H23 = tested on: NCI-H23
M14 = tested on: M14
SF-295 = tested on: SF-295
BT-549 = tested on: BT-549
SW-620 = tested on: SW-620
HOP-92 = tested on: HOP-92
MDA-N = tested on: MDA-N
HL-60 = tested on: HL-60

Compound: CC(C)(C)OC(=O)NCCCCC(N)NC(=O)c1ccccc1 (stereo not drawn)
- GI50 (OVCAR-3): > 100 µM (inactive)
- GI50 (ACHN): > 100 µM (inactive)
- GI50 (NCI-H522): > 100 µM (inactive)
- GI50 (Hs-578T): > 100 µM (inactive)
- GI50 (NCI-H226): > 100 µM (inactive)
- GI50 (PC-3): > 100 µM (inactive)
- GI50 (HCT-116): > 100 µM (inactive)
- GI50 (CCRF-CEM): > 100 µM (inactive)
- GI50 (HT-29): > 100 µM (inactive)
- GI50 (786-0): > 100 µM (inactive)
- GI50 (LOX IMVI): > 100 µM (inactive)
- GI50 (T47D): > 100 µM (inactive)
- GI50 (IGROV-1): > 100 µM (inactive)
- GI50 (SK-OV-3): > 100 µM (inactive)
- GI50 (U-251): > 100 µM (inactive)
- GI50 (COLO 205): > 100 µM (inactive)
- GI50 (SF-539): > 100 µM (inactive)
- GI50 (UACC-62): > 100 µM (inactive)
- GI50 (MDA-MB-231): > 100 µM (inactive)
- GI50 (RXF 393): > 100 µM (inactive)
- GI50 (HOP-62): > 100 µM (inactive)
- GI50 (HCC 2998): > 100 µM (inactive)
- GI50 (NCI-H460): > 100 µM (inactive)
- GI50 (MOLT-4): > 100 µM (inactive)
- GI50 (Malme-3M): > 100 µM (inactive)
- GI50 (TK-10): > 100 µM (inactive)
- GI50 (UO-31): > 100 µM (inactive)
- GI50 (MCF7): > 100 µM (inactive)
- GI50 (SK-MEL-2): > 100 µM (inactive)
- GI50 (A549): > 100 µM (inactive)
- GI50 (KM12): > 100 µM (inactive)
- GI50 (DU-145): > 100 µM (inactive)
- GI50 (MDA-MB-435): > 100 µM (inactive)
- GI50 (A498): > 100 µM (inactive)
- GI50 (OVCAR-8): > 100 µM (inactive)
- GI50 (CAKI-1): > 100 µM (inactive)
- GI50 (SNB-19): > 100 µM (inactive)
- GI50 (K562): > 100 µM (inactive)
- GI50 (SNB-75): > 100 µM (inactive)
- GI50 (EKVX): > 100 µM (inactive)
- GI50 (UACC-257): > 100 µM (inactive)
- GI50 (SK-MEL-5): > 100 µM (inactive)
- GI50 (SN12C): > 100 µM (inactive)
- GI50 (SK-MEL-28): > 100 µM (inactive)
- GI50 (RPMI-8226): > 100 µM (inactive)
- GI50 (HCT-15): > 100 µM
- GI50 (OVCAR-4): > 100 µM (inactive)
- GI50 (OVCAR-5): > 100 µM (inactive)
- GI50 (SF-268): > 100 µM (inactive)
- GI50 (NCI/ADR-RES): > 100 µM (inactive)
- GI50 (NCI-H23): > 100 µM (inactive)
- GI50 (M14): > 100 µM (inactive)
- GI50 (SF-295): > 100 µM (inactive)
- GI50 (BT-549): > 100 µM (inactive)
- GI50 (SW-620): > 100 µM (inactive)
- GI50 (HOP-92): > 100 µM (inactive)
- GI50 (MDA-N): > 100 µM (inactive)

Compound: CCOc1ccc(/N=N/C2C(=O)N(C(=O)CC(=O)Nc3ccccc3OC)N=C2C)cc1 (stereo not drawn)
- GI50 (OVCAR-3): 8.83 µM (inactive)
- GI50 (ACHN): > 100 µM (inactive)
- GI50 (NCI-H522): 11 µM (inactive)
- GI50 (Hs-578T): 2.85 µM (inactive)
- GI50 (NCI-H226): > 52.1 µM (inactive)
- GI50 (PC-3): > 100 µM (inactive)
- GI50 (HCT-116): 8.63 µM (inactive)
- GI50 (CCRF-CEM): > 100 µM (inactive)
- GI50 (HT-29): 4.13 µM (inactive)
- GI50 (786-0): > 39.1 µM (inactive)
- GI50 (LOX IMVI): 29.7 µM (inactive)
- GI50 (T47D): > 65 µM (inactive)
- GI50 (IGROV-1): 5.43 µM (inactive)
- GI50 (SK-OV-3): > 37.2 µM (inactive)
- GI50 (U-251): > 36 µM (inactive)
- GI50 (COLO 205): > 100 µM (inactive)
- GI50 (SF-539): 7.83 µM (inactive)
- GI50 (UACC-62): > 44.3 µM (inactive)
- GI50 (MDA-MB-231): > 36.5 µM (inactive)
- GI50 (RXF 393): 12.5 µM (inactive)
- GI50 (HOP-62): > 33.4 µM (inactive)
- GI50 (HCC 2998): > 21.7 µM (inactive)
- GI50 (NCI-H460): 13.8 µM (inactive)
- GI50 (MOLT-4): > 22.3 µM (inactive)
- GI50 (Malme-3M): 21.1 µM (inactive)
- GI50 (TK-10): > 33.1 µM (inactive)
- GI50 (UO-31): > 71.1 µM (inactive)
- GI50 (MCF7): 6.61 µM (inactive)
- GI50 (SK-MEL-2): > 38.2 µM (inactive)
- GI50 (HL-60): 4.17 µM (inactive)
- GI50 (A549): > 43.3 µM (inactive)
- GI50 (KM12): 4.35 µM (inactive)
- GI50 (DU-145): > 77.6 µM (inactive)
- GI50 (MDA-MB-435): 1.93 µM (inactive)
- GI50 (A498): > 30.1 µM (inactive)
- GI50 (OVCAR-8): 59.8 µM (inactive)
- GI50 (CAKI-1): > 36.7 µM (inactive)
- GI50 (K562): 13.2 µM (inactive)
- GI50 (SNB-75): 0.916 µM (active)
- GI50 (UACC-257): > 74.3 µM (inactive)
- GI50 (SK-MEL-5): 32.3 µM (inactive)
- GI50 (SN12C): > 100 µM (inactive)
- GI50 (SK-MEL-28): > 100 µM (inactive)
- GI50 (RPMI-8226): 45 µM (inactive)
- GI50 (HCT-15): 14.5 µM
- GI50 (OVCAR-4): > 19.7 µM (inactive)
- GI50 (OVCAR-5): > 100 µM (inactive)
- GI50 (SF-268): > 42.8 µM (inactive)
- GI50 (NCI/ADR-RES): 30 µM (inactive)
- GI50 (NCI-H23): 38 µM (inactive)
- GI50 (M14): 25.5 µM (inactive)
- GI50 (SF-295): > 36.6 µM (inactive)
- GI50 (BT-549): 13.2 µM (inactive)
- GI50 (SW-620): 8 µM (inactive)
- GI50 (HOP-92): > 32.4 µM (inactive)
- GI50 (MDA-N): 2.52 µM (inactive)

From ChEMBL document CHEMBL1201862, “PubChem BioAssay data set” (2004)
